# Source: publication PMC12084609, “Structural insights into small-molecule agonist recognition and activation of complement receptor C3aR” (The EMBO Journal, 2025)
# Residue numbers refer to the chain shown, from its start. Several values for one entry are separate records, joined by “and”; a condition that tells them apart may be missing. Identical values can stand only once. Like-named read-outs stand apart in the source and are kept apart here.
# Legend:
# Assay type in all cases: cell-based
# C3aR L82^2.64A = target: T1, C3aR L82^2.64A (Homo sapiens, UniProt Q16581, L82A); experiment: GloSensor-based cAMP assay, C3aR mutant L82A
# T1 construct: expressed in transfected cells; host or cells: HEK293T
# T1 sequence (Q16581 1-482 L82A): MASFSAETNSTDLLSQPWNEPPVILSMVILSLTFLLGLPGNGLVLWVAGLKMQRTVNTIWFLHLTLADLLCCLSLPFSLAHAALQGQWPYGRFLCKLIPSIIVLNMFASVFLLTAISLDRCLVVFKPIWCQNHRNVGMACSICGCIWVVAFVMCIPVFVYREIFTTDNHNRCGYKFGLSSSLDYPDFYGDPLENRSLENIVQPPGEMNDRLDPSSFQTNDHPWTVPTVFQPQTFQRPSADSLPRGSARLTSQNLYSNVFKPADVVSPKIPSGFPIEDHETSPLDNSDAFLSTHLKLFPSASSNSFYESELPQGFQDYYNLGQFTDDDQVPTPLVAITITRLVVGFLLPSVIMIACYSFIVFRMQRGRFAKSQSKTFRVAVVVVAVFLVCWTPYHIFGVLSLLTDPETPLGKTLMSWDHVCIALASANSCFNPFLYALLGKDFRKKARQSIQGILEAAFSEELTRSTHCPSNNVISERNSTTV
# Protocol: (§1) HEK293T cells were seeded on 6-well plates (NEST) and transfected with pGlosensor™-22F plasmids (Promega) and pcDNA3.1 plasmids encoding C3aR or its mutants an with N-terminal FLAG tag. After 48 h, cells were detached with Accutase solution (Sigma-Aldrich) and washed with PBS, and resuspended in assay buffer (CO2-independent medium with 0.5 mg mL^−1D-luciferin). 100,000–200,000 cells were seeded on 96-well white bottom plates (SPL) and incubated at 37 °C for 45 min followed by 45 min incubation at room temperature. After 90 min of incubation, basal luminescence signals were recorded. In total, 25 μl of test ligand with various concentrations and 1 μM Forskolin (Sigma-Aldrich) were treated to the cells and luminescence signals were measured by Tristar 2 LB 942 multimode reader (Berthold). […] Relative luminescence unit (%) was calculated with the signal of wells treated with vehicle as 0% and the signal of wells treated with 1 μM Forskolin as 100% (DiRaddo et al, [2014]). Nonlinear regression was performed using a three-parameter logistic equation.
# C3aR H418^7.36A = target: T2, C3aR H418^7.36A (Homo sapiens, UniProt Q16581, H418A); experiment: GloSensor-based cAMP assay, C3aR mutant H418A
# T2 construct: expressed in transfected cells; host or cells: HEK293T
# T2 sequence (Q16581 1-482 H418A): T1 sequence (Q16581 1-482 L82A) with A82L, H418A
# Protocol: as §1
# C3aR I421^7.39A = target: T3, C3aR I421^7.39A (Homo sapiens, UniProt Q16581, I421A); experiment: GloSensor-based cAMP assay, C3aR mutant I421A
# T3 construct: expressed in transfected cells; host or cells: HEK293T
# T3 sequence (Q16581 1-482 I421A): T1 sequence (Q16581 1-482 L82A) with A82L, I421A
# Protocol: as §1
# [1] = Dunnett's multiple comparisons test, WT minus mutant
smiles,measurement,setting,value
"Cc1cc(C(c2ccc(Cl)cc2)c2ccc(Cl)cc2)sc1C(=O)N[C@@H](CCCNC(=N)N)C(=O)O [JR14a, reference compound]","Mean Diff. of pIC50, WT vs. L82A",C3aR L82^2.64A; [1],-0.402
same,IC50,"C3aR L82^2.64A; IC50, L82^2.64A, dose-response plot",2.07 nM
same,remaining activity at 1 µM,"C3aR L82^2.64A; L82A, Log[JR14a (M)] -6, single replicates, read-out: cAMP response (% Forskolin)",9.36%
same,remaining activity at 0.1 µM,"C3aR L82^2.64A; L82A, Log[JR14a (M)] -7, single replicates, read-out: cAMP response (% Forskolin)",8.92%
same,remaining activity at 0.01 µM,"C3aR L82^2.64A; L82A, Log[JR14a (M)] -8, single replicates, read-out: cAMP response (% Forskolin)",34.1%
same,remaining activity at 0.001 µM,"C3aR L82^2.64A; L82A, Log[JR14a (M)] -9, single replicates, read-out: cAMP response (% Forskolin)",62.6%
same,remaining activity at 0.0001 µM,"C3aR L82^2.64A; L82A, Log[JR14a (M)] -10, single replicates, read-out: cAMP response (% Forskolin)",93.2%
same,remaining activity at 10 pM,"C3aR L82^2.64A; L82A, Log[JR14a (M)] -11, single replicates, read-out: cAMP response (% Forskolin)",106%
same,ΔpIC50 ± SE of Diff.,C3aR L82^2.64A; L82^2.64A relative to WT C3aR,0.40 ± 0.14
same,IC50,"C3aR L82^2.64A; pIC50 (Replicate), L82^2.64A, individual replicates",1.55 nM and 3.39 nM and 1.66 nM
same,IC50,"C3aR L82^2.64A; pIC50 ± SEM (Mean), L82^2.64A, mean of independent experiments",2.04 nM
same,"Mean Diff. of pIC50, WT vs. H418A",C3aR H418^7.36A; [1],-0.145
same,ΔpIC50 ± SE of Diff.,C3aR H418^7.36A; H418^7.36A relative to WT C3aR,0.14 ± 0.08
same,IC50,"C3aR H418^7.36A; H418^7.36A, mean of independent experiments, read-out: pIC50 ± SEM (Mean) (converted)",2.51 nM
same,IC50,"C3aR H418^7.36A; IC50, H418^7.36A, dose-response plot",2.56 nM
same,IC50,"C3aR H418^7.36A; pIC50 (Replicate), H418^7.36A, individual replicates",2.04 nM and 4.07 nM and 4.79 nM and 0.977 nM
same,"Mean Diff. of pIC50, WT vs. I421A",C3aR I421^7.39A; [1],1.797
same,remaining activity at 0.01 µM,"C3aR I421^7.39A; I421A, Log[JR14a (M)] -8, single replicates, read-out: cAMP response (% Forskolin)",91.4%
same,remaining activity at 0.001 µM,"C3aR I421^7.39A; I421A, Log[JR14a (M)] -9, single replicates, read-out: cAMP response (% Forskolin)",92.7%
same,remaining activity at 0.0001 µM,"C3aR I421^7.39A; I421A, Log[JR14a (M)] -10, single replicates, read-out: cAMP response (% Forskolin)",96.4%
same,remaining activity at 10 pM,"C3aR I421^7.39A; I421A, Log[JR14a (M)] -11, single replicates, read-out: cAMP response (% Forskolin)",93.5%
same,reduction in ligand-induced signaling vs WT,C3aR I421^7.39A; I421^7.39A mutant,60 fold
same,ΔpIC50 ± SE of Diff.,C3aR I421^7.39A; I421^7.39A relative to WT C3aR,-1.80 ± 0.06
same,IC50,"C3aR I421^7.39A; IC50, I421^7.39A, dose-response plot",204 nM
same,IC50,"C3aR I421^7.39A; pIC50 (Replicate), I421^7.39A, individual replicates",229 nM and 263 nM and 331 nM and 115 nM
same,IC50,"C3aR I421^7.39A; pIC50 ± SEM (Mean), I421^7.39A, mean of independent experiments",219 nM
